Laboratory results reported in patent publication US20180071280A1, “MODULATORS OF CELL DEATH PROCESSES” (URIFER LTD., priority 2015, published 2018).
Structures can show the parent of a compound that is named as a salt.

Columns and labels:
[1] = target: Fer (Homo sapiens, UniProt P16591); test: Immunoprecipitation of Fer from 0260 treated SW620 CC cells; assay type: binding; set-up: endogenous in cells; host or cells: SW620 colon carcinoma cells
Description: Protein lysates (1 mg) were prepared from tissues of adult mice according to previously described protocol, including incubation with Protein A Sepharose (GE Healthcare) to avoid nonspecific binding. Protein lysates were incubated with specific antibodies diluted 1:100 overnight at 4° C. Antigen-antibody complexes were precipitated with Protein A Sepharose, washed twice in PBS and eluted in Sample Buffer (2% SDS, 1% DTT 0.02% bromophenol blue 10% glycerol, 12.5 mM EDTA, 50 mM Tris-HCl pH 6.8) at room temperature for 10 min and at 100° C. for 8 min. Eluates were separated on SDS-PAGE and visualized by WB using specific antibodies.
To examine the effect of 0260 micellar formulation on Fer in malignant cells, the kinase was immuno-precipitated from untreated and from 0260 treated SW620 CC cells.

[2] = system: AMPK-mTOR signaling pathway; test: WB of AMPK-mTOR signaling pathway phosphorylation in CC cells; assay type: cell-based, human
Description: (§1) WB analyses were carried out as previously described before. In brief, cells were lysed in RIPA buffer mixed with protease inhibitors and separated on SDS-PAGE gel, transferred to PVDF membrane treated with 5% skim milk to exclude non-specific background and incubated with a primary antibody over-night. The membrane was incubated for 1 h with a secondary antibody conjugated to Horseradish Peroxidase (HRP). The protein-antibody complex was visualized using the SuperSignal West Pico Chemiluminescent Substrate (Thermo scientific, USA).

[3] = system: HKII; test: Glycolysis enzyme levels in CC cells (WB, ICC); assay type: cell-based, human
Description: as §1
Cells were fixed with 4% paraformaldehyde (30 min) and incubated with Permeabilization Solution containing 0.1% Triton X-100 (Sigma-Aldrich, Israel) in PBS at room temperature for 1 h. Nonspecific binding was blocked with PBS containing 10% fetal bovine serum for 1 h at room temperature. Cells were incubated with specific antibodies diluted 1:100 overnight at 4° C. […] Bound primary antibodies were detected by Alexa Fluor® 488 goat anti-mouse IgG antibody or Alexa Fluor® 594 goat anti-rabbit IgG antibody (Molecular Probes, Invitrogen, U.K.). […] Nonspecific staining, as determined by binding to the secondary antibody only, was negligible. The immunostained slides were examined under the fluorescence microscope AxioimagerZ1 (Zeiss, Germany) or confocal fluorescence microscope (Olympus-FV1000).

[4] = system: SW620 cells; test: TUNEL assay in SW620 cells; assay type: cell-based, human; conditions: 12 h
Description: Samples of 1×10^6 cells were inoculated into a 6 well plate containing a cover slip, and fixed for 30 min with 4% paraformaldehyde following adhesion. The cells were then subjected to TUNEL analysis according to manufacturer's instructions (Roche, USA).

[5] = system: CC cells; test: Autophagy in CC cells (TEM, LC3 immuno-staining, WB); assay type: cell-based, human
Description: as §1
Cells were fixed with 4% paraformaldehyde (30 min) and incubated with Permeabilization Solution containing 0.1% Triton X-100 (Sigma-Aldrich, Israel) in PBS at room temperature for 1 h. Nonspecific binding was blocked with PBS containing 10% fetal bovine serum for 1 h at room temperature. Cells were incubated with specific antibodies diluted 1:100 overnight at 4° C. Cells were washed (5 min) in PBS containing 0.2% Tween-20 (Sigma-Aldrich, Israel) to remove non-specific binding. Bound primary antibodies were detected by Alexa Fluor® 488 goat anti-mouse IgG antibody or Alexa Fluor® 594 goat anti-rabbit IgG antibody (Molecular Probes, Invitrogen, U.K.). Nuclei were visualized by incubation with Hoechst 33342 solution for 10 min (1:500). Nonspecific staining, as determined by binding to the secondary antibody only, was negligible. The immunostained slides were examined under the fluorescence microscope AxioimagerZ1 (Zeiss, Germany) or confocal fluorescence microscope (Olympus-FV1000).
Cells were grown in MEM or DMEM, washed twice with PBS and fixed for 5 minutes in Karnovsky fixative (2.5% glutaraldehyde, 2.5% paraformaldehyde in cacodylate buffer pH 7.4) on the tissue culture plate. Cells were then harvested, and transferred to 1.5 ml tube for further 1 h fixation at room temperature. The cells were then stored O.N at 4C° after which the samples were washed in 0.1 M cacodylate buffer and post-fixed with 1% OsO4 in 0.1 M sodium cacodylate buffer (Sigma-Aldrich, Israel) for 1 h. […]

[6] = target: CAMK1 (Calcium/calmodulin-dependent protein kinase type 1) (Homo sapiens, UniProt Q14012); test: Kinase panel assay, CAMK1; assay type: biochemical; conditions: above threshold
CAMK1 (Calcium/calmodulin-dependent protein kinase type 1), sequence (Q14012 whole entry): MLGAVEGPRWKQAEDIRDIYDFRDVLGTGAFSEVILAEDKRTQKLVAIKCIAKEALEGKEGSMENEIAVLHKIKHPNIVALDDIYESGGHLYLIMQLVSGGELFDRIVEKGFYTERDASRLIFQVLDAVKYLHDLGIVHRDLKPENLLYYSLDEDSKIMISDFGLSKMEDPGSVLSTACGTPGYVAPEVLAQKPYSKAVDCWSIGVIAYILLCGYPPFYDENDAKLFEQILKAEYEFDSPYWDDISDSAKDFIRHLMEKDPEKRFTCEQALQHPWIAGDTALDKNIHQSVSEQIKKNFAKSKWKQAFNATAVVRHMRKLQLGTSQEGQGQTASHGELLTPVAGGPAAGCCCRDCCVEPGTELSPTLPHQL
Description: (§2) Kinase panel assays were performed using the FRET-based Z′-LYTE, Lantha Screen and Adapta enzymatic kinase assay systems (Life Technologies, Carlsbad, Calif.), which were carried out using the SelectScreen Kinase Profiling Service (Life Technologies). The standard reaction contained 2 μM peptide substrate, ATP at the optimal assay concentration, 50 mM HEPES (pH 7.5), 0.01% Brij-35, 10 mM MgCl2, 1 mM EGTA, and the tested kinase. Each kinase was checked for its activity in duplicate data points (n=2) and was assayed following the detailed procedures outlined in the SelectScreen service. Percent inhibition or ATP displacement (For Lantha screen) represent a ratio of phosphorylated/ATP bound product formed in the presence of the compound compared with phosphorylated/ATP bound product formed in reactions containing 1% DMSO.
(§3) Kinome technique was used for monitoring phosphorylation events and phosphorylation targets of 0260-Fer interaction, using peptide arrays for human targets and phosphorylation-specific antibodies. Construction of peptide arrays relied on information from phosphorylation databases. The following proteins were determined as significant above the threshold of 40% kinase activity inhibition or ATP displacement to the Kinase domain site.

[7] = system: SW620 cells; test: TEM analysis of mitochondria in SW620 cells; assay type: cell-based, human
Description: Cells were grown in MEM or DMEM, washed twice with PBS and fixed for 5 minutes in Karnovsky fixative (2.5% glutaraldehyde, 2.5% paraformaldehyde in cacodylate buffer pH 7.4) on the tissue culture plate. Cells were then harvested, and transferred to 1.5 ml tube for further 1 h fixation at room temperature. The cells were then stored O.N at 4C° after which the samples were washed in 0.1 M cacodylate buffer and post-fixed with 1% OsO4 in 0.1 M sodium cacodylate buffer (Sigma-Aldrich, Israel) for 1 h. Samples were then dehydrated in alcohol and propylene oxide followed by embedding in Agar Mix. Thin sections (60 nm) were cut, stained with uranyl acetate and lead citrate, and observed in a FEI Tecnai transmission electron microscope.

[8] = system: CC cells; test: Glycolysis rate (secreted lactate) in CC cells; assay type: cell-based, human; conditions: 12 h
Description: Cells were grown in MEM containing 1 gr/lit glucose or in DMEM with 4.5 gr/lit glucose. Secreted lactate levels were determined using Lactate Colorimetric Assay Kit II according to the manufacturer's protocol (Biovision, USA).

[9] = target: FLT3 (FMS-like tyrosine kinase 3) (Homo sapiens, UniProt P36888); test: Kinase panel assay, FLT3; assay type: biochemical; conditions: above threshold
FLT3 (FMS-like tyrosine kinase 3), sequence (P36888 27-993): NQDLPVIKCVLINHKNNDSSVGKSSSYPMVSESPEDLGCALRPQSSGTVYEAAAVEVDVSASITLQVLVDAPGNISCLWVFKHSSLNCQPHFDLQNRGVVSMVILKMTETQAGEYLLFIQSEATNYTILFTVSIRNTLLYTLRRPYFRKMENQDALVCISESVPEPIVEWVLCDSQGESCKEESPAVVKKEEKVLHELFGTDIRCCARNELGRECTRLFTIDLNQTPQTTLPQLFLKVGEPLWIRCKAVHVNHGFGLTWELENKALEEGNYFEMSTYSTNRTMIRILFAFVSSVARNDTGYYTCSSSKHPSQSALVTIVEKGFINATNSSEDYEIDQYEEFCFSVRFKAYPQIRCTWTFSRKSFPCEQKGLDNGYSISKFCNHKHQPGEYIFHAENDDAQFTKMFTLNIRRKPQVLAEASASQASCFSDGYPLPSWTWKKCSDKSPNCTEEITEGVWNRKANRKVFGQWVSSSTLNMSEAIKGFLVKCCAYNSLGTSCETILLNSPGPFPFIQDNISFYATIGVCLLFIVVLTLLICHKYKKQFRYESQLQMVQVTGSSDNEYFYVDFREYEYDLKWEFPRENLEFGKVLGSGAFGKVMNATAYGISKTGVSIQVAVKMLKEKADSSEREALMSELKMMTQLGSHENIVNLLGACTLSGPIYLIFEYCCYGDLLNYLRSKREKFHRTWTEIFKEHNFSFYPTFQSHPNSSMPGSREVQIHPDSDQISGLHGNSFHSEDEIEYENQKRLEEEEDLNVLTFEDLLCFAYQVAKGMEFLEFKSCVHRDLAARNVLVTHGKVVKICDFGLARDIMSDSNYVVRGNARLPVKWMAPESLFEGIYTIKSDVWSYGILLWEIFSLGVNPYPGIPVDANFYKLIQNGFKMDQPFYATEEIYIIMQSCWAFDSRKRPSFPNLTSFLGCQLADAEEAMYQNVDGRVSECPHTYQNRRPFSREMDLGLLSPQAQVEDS
Description: as §2, §3

[10] = target: MINK1 (Homo sapiens, UniProt Q8N4C8); test: Kinase panel assay, MINK1; assay type: biochemical; conditions: above threshold
MINK1, sequence (Q8N4C8 1-320 limits assumed): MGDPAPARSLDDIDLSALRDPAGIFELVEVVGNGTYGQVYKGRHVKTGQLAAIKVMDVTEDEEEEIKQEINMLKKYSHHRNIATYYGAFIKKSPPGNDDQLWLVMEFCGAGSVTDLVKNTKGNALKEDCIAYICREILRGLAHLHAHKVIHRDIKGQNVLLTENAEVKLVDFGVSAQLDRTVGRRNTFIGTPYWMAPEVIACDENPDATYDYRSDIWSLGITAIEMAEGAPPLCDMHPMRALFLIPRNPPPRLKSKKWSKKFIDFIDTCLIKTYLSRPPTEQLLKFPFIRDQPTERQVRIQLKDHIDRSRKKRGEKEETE
Description: as §2, §3

[11] = target: CSF1R (Colony stimulating factor 1 receptor-FMS) (Homo sapiens, UniProt P07333); test: Kinase panel assay, CSF1R; assay type: biochemical; conditions: above threshold
CSF1R (Colony stimulating factor 1 receptor-FMS), sequence (P07333 20-972): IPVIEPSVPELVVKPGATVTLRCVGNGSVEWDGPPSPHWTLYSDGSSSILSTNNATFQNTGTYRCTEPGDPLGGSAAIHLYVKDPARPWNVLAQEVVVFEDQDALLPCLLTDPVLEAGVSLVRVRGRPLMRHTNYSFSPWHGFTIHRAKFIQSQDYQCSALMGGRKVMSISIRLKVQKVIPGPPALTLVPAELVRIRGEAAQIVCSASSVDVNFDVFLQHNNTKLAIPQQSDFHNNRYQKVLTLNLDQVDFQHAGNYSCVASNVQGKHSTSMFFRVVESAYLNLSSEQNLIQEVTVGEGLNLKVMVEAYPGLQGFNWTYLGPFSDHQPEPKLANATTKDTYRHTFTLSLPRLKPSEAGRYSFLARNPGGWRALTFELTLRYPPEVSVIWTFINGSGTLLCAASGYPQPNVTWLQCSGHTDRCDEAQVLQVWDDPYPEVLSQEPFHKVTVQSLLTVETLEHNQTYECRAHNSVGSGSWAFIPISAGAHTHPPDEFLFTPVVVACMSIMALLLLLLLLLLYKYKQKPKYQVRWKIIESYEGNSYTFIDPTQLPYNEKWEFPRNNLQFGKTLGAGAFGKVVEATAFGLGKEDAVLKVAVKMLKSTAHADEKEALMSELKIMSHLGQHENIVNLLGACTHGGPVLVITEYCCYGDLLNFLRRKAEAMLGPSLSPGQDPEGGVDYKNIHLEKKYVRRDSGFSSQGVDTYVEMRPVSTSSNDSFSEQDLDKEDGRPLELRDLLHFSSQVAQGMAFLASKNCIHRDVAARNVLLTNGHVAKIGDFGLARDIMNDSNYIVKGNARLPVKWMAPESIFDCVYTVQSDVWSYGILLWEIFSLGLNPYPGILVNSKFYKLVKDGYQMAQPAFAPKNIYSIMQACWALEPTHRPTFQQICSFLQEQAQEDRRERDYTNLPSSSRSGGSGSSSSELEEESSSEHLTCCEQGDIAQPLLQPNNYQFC
Description: as §2, §3

Fer, sequence (P16591 whole entry): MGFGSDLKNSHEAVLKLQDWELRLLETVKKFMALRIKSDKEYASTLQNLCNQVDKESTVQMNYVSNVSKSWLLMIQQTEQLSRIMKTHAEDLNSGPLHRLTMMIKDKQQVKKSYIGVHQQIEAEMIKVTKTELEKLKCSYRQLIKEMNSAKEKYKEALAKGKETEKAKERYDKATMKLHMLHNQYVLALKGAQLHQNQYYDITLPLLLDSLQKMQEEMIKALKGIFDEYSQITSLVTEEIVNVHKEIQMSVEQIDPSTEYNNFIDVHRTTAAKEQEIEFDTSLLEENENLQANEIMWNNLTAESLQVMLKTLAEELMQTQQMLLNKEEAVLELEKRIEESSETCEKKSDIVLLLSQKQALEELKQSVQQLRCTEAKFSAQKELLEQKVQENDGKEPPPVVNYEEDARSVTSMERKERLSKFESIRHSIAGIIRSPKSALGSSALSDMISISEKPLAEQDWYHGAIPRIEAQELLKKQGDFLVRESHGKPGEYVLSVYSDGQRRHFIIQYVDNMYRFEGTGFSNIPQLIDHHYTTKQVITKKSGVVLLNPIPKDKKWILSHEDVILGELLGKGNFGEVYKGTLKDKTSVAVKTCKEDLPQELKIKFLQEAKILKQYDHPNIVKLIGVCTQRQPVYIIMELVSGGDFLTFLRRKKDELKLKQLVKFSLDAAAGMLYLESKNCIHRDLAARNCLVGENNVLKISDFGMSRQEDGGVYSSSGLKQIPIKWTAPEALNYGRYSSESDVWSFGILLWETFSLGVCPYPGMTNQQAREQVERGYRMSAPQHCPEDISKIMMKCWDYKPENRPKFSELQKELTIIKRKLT

Compound: CC(C)c1ccc(-c2cn3nc(N4CCC(CN5CCN(C)CC5)CC4)sc3n2)cc1 [compound 0260, tartarate salt of 6-(4-isopropyl-phenyl)-2-{4-[(4-methyl-piperazin-1-yl)methyl]piperidin-1-yl}-imidazo [2,1-b][1,3,4]thiadiazole]
- IP of Fer by antibodies toward the N-terminal tail [1]: did not disable the IP of Fer
- AMPK phosphorylation [2]: phosphorylated and activated
- Akt phosphorylation [2]: decrease in the activating phosphorylation
- Raptor phosphorylation on serines 792 and 722 [2]: inhibitory phosphorylation
- mTOR phosphorylation state [2]: not changed
- HKII level [3]: down-regulation of HKII
- DNA integrity (TUNEL) [4]: did not reveal any effect
- autophagy / autophagosomes ([5]; TEM and LC3 immuno-staining): autophagy was induced and autophagosomes accumulated
- level of LC3II ([5]; WB): relative increase
- kinase activity inhibition or ATP displacement [6]: > 40%
- mitochondria morphology (TEM) ([7]; 16 h): deformation and loss of the normal elongated shape of mitochondria
- mitochondria morphology (TEM) ([7]; 24 h): the mitochondria underwent lysis
- mitochondria morphology (TEM) ([7]; 24 h, high glucose conditions): mitochondrial damage was still observed
- additional acceleration of glycolytic rate ([8]; high glucose concentration): 30%
- elevation in the glycolytic rate ([8]; high glucose concentration, total): 65%
- acceleration of glycolytic rate ([8]; low glucose): 35%
- kinase activity inhibition or ATP displacement [9]: > 40%
- kinase activity inhibition or ATP displacement [10]: > 40%
- kinase activity inhibition or ATP displacement [11]: > 40%
